Assay results as given in patent publication US10149838B2, “Small molecule securinine and norsecurinine analogs and their use in inhibiting myeloperoxidase” (MiRx Pharmaceuticals, LLC, priority 2013, dated 2018).

Legend:
[1] = target: T1, MPO (Homo sapiens, UniProt P05164); assay: MALDI-TOF analysis of heme and heme/compound conjugate in presence of H2O2; assay type: binding; parameters: purchased Cayman Chemical 700170
T1 sequence (P05164 49-745): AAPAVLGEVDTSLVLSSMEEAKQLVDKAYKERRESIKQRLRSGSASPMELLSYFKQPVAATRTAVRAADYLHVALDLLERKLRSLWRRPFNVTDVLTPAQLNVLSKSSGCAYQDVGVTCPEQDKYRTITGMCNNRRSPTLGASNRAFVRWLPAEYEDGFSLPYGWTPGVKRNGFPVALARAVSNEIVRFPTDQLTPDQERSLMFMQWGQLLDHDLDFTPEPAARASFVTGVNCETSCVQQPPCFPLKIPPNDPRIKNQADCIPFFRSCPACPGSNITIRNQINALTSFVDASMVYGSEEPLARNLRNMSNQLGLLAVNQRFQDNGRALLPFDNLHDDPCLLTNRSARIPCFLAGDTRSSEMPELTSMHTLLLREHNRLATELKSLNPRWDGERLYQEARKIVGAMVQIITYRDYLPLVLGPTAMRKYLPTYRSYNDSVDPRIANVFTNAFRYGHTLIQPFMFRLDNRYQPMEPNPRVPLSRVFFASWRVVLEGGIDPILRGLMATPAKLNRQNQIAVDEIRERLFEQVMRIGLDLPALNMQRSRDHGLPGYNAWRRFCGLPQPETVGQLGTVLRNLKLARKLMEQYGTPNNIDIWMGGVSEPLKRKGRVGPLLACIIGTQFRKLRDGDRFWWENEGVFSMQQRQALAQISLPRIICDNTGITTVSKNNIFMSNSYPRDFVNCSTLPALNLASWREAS
Protocol: (§1) Only MPO (red) and H2O2 promoted a shift in the Soret peak, formation of a new band at 630 nm (blue).
To determine the binding motif/active site of MPO and the compound of interest, a computational docking analysis using a 2.5 A crystal structure (PDB id 3ZSO) was performed. The heme ‘m’ in myeloperoxidase contains two ester bonds at the heme 1 and 5-methyls. In addition, a unique sulfonium ion linkage was observed. […] An inhibitory action of the myeloperoxidase is predicted when such covalent links are formed. Especially docking position of 184B unique and have visible effect on the Hisitidine 336 coordinated iron (FIG. 6E). These docking results explain the observed effects of 184B on the soret peak (˜433). Further MALDI-TOF analysis of heme (un conjugated) and heme/184B conjugated (in presence of H2O2) complexes are liberated from protein and analyzed ions with an ˜m/z>1040, which would be the mass of conjugated heme and 184B compare to unconjugated control only heme (m/z˜694) (FIG. 6F).

[2] = target: T2, thyroid peroxidase (Homo sapiens, UniProt P07202); assay: Oxidation of ascorbate by thyroid peroxidase and iodide (iodination activity); assay type: biochemical; details: 10 μM, iodide
T2 sequence (P07202 19-933): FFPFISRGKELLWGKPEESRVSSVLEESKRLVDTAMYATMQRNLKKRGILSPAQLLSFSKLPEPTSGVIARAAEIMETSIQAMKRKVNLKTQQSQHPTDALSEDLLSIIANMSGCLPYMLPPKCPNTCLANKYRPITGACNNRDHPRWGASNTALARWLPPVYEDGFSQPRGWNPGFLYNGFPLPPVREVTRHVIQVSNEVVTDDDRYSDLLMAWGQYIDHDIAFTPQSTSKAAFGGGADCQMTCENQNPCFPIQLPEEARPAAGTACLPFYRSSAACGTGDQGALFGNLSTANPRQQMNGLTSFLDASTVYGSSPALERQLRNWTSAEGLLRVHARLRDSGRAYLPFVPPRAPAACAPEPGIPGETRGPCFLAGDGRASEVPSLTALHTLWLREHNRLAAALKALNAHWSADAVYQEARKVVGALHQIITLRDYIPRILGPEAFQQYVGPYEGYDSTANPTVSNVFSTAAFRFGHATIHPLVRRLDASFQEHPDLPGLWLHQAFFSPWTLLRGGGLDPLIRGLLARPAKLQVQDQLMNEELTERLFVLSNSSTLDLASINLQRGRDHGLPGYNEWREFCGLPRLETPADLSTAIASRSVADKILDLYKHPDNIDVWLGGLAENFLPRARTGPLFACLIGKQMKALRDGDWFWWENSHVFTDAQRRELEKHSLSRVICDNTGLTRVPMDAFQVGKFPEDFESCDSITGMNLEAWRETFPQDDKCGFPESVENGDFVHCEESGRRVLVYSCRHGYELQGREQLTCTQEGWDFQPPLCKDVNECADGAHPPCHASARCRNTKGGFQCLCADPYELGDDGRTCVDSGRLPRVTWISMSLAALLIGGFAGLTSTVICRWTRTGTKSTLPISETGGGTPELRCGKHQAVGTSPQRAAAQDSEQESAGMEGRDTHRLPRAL
Description: (§2) All Results are representative of duplicate experiments
(§3) To determine whether these analogues are selective for MPO, rather than being a general peroxidase inhibitor, thyroid peroxidase and lactoperoxidase were selected for oxidase evaluation. The effect of MA20 on the halogenation activities of MPO and thyroid peroxidase were compared by following the oxidation of ascorbate in the presence of chloride or iodide.

[3] = test system: human neutrophils; assay: HOCl production by PMA-stimulated human neutrophils; assay type: cell-based; details: 0.5 μM MA20, PMA 110 ng/ml 30 min
Protocol: as §2
The reaction was stopped by 251 μg/ml of catalase and 0.5 μM of MA20, and chlorination activity was measured. […] This effect is strikingly similar to MA20's inhibitory effect on purified MPO (FIG. 7C). […] As such, they prevent the production of HOCl without concomitant release of free radicals.

[4] = test system: HEK293; assay type: cell-based
Description: (§4) The securinine analog MPO inhibitors have favorable in vitro and in vivo toxicity profiles.

[5] = test system: Skin fibroblast (BJ1); assay type: cell-based
Description: as §4

[6] = test system: mouse embryonic fibroblast (MEF); assay type: cell-based
Description: as §4

[7] = in vitro; assay type: in vitro ADME; details: human, microsomes
Description: as §4

[8] = target: T1, MPO; assay: UV/visible heme absorption spectra of MPO with compound/H2O2; assay type: binding; parameters: purchased Cayman Chemical 700170
Protocol: as §1
It was next set about to investigate the molecular target of the analogs (FIG. 6A). Cultured HL60 cells were treated with either Biotin/Biotin-INVMG1 (securinine) (10 μM) for 2 hr and pull-down experiments using streptavidin magnetic beads were used to pulldown bound molecules, followed by SDS-PAGE analysis (FIG. 6B). […] This 80 kDa protein band was excised, digested with trypsin, and the tryptic digests then analyzed using Mass Spectroscopy. […] The proteins bound to streptavidin beads were next separated using SDS-PAGE and incubated then with anti-human MPO antibody. […] To further confirm the binding of INVMG1 to MPO, the MPO enzyme was incubated with and without INVMG184B/H2O2, and analyzed absorption maxima using UV/visible.

[9] = target: T1, MPO; assay: Chlorination assay with purified MPO (HOCl formation, APF fluorescence); assay type: biochemical; parameters: purchased Cayman Chemical 700170
Protocol: as §2
MPO's catalyzed enzymatic reaction consists of multiple stages (FIG. 3). Chlorination occurs when Complex-I produces hypochlorous acid (HOCl) in the presence of a chloride ion. […] Analogue MA20:
(§5) To determine the mechanism of this inhibition, the MPO enzyme was incubated with MA20 in the presence or absence of H2O2 for a set time and determined the reduction in chlorination activity of the enzyme. Residual activity was measured by diluting the reaction mixture by 150 fold. Incubation with either MA20 or H2O2 had minimal MPO inhibitory activity (approximately a 25-30% reduction in chlorination activity, FIG. 7E).

[10] = target: T1, MPO; assay: Residual chlorination activity of MPO after incubation with or without H2O2, 150 fold dilution; assay type: biochemical; parameters: purchased Cayman Chemical 700170; details: FIG. 7E
Protocol: as §2, §5

[11] = target: T1, MPO; assay: Oxidation of ascorbate by MPO, H2O2 and chloride; assay type: biochemical; parameters: purchased Cayman Chemical 700170; details: 1.0 μM, chloride
Description: as §2, §3

Row | Compound | nature of interaction with MPO (heme conjugate) [1] | effect on the iodination activity of thyroid peroxidase [2] | PMA-induced HOCl production by neutrophils [3] | toxicity (cell survival) [4] | toxicity (cell survival) [5] | toxicity (cell survival) [6] | half-life [7] | binding with the heme prosthetic group (Soret ~433 nm, peak ~630 nm) [8] | MPO inhibition activity assessed by chlorination activity ([9]; FIG. 7B-C) | inhibition potency (chlorination) versus chloride ion concentration ([9]; FIG. 7D) | mechanism of MPO inhibition ([9]; preliminary data) | MPO activity after addition of compound and H2O2 ([10]; MA20 and H2O2) | reduction in chlorination activity ([10]; incubation with MA20 alone, without H2O2) | oxidation of ascorbate by MPO [11]
1 | O=C1C=C2CC(S(=O)(=O)c3ccccc3)[C@@H]3C[C@@]2(O1)[C@H]1CCCCN31 (some centres unmarked) [INVS-MG-184B] | irreversible |  |  |  |  |  |  |  |  |  |  |  |  | 
2 | O=C1C=C2C(S(=O)(=O)c3ccccc3)C[C@@H]3C[C@@]2(O1)C1CCCCN13 (some centres unmarked) [MA20] |  | negligible | significantly inhibited | significantly lower level of toxicity | significantly lower level of toxicity | significantly lower level of toxicity | ~80 min | direct binding | highest MPO inhibition activity | decreased with increasing concentrations of the chloride ion | suicidal substrate | completely inhibited | 25-30% | completely blocked
